Laboratory results: patent US4581377A, “Fluorene derivatives” (Nippon Shinyaku Co., Ltd., priority 1983, dated 1986)
Where two headings read alike, the source gives them in different places.

Assays:
[1] = Action for formation of ulcer; set-up: species or system rat (male, SD strain); conditions: rat, in vivo, po
Procedure: (Action for formation of ulcer)
Male rats (SD strain) of five weeks age were fasted for 24 hours and the test compound (as a suspension in CMC; 0.5% concentration) was given orally at a dose of 1 ml/100 g body weight. After 24 hours, 5% pontamine sky blue (0.5 ml) was injected intravenously and, ten minutes thereafter, the rats were killed by anesthetizing with ether and their stomachs were removed therefrom. […] When at least one ulcer was observed, the ulcer formation was decided to be positive and, according to a Weil's method (four rats per group), UD50 (50% ulcer-forming dose) was determined.

carrageenin edema = assay: Effect on carrageenin edema; format: in vivo, rat (male, SD strain); conditions: Rattus norvegicus, po, read-out: Inhibition against Carrageenin edema ED30
Procedure: (Effect on carrageenin edema) One group consisting of 5 male rats of SD strain and of five weeks age was used in the experiment. Compounds to be tested were given orally and, three hours thereafter, 0.1 ml of 0.5% λ-carrageenin was injected at the right hind paw subcutaneously. After three hours, volume of the right hind paw was measured using a plethysmometer, then the volume of the hind paw before the carrageenin injection was deducted from the above measured value to obtain the degree of swelling (in ml), the average swelling inhibition rate of the groups treated with the compounds as compared with the control group was calculated and, using a method of least squares, ED30 was determined.

Acute Toxicity = conditions: rat, in vivo; rats, p.o.; seven days after oral administration
Procedure: Four male rats (SD strain) of six weeks age were used as a group and the LD50 values seven days after oral administration was calculated by Weil's method.

acetic acid writhing = assay: Acetic acid Writhing Method; format: in vivo, mouse (male, ddY strain); conditions: Mus musculus, read-out: Inhibition against Acetic acid writhing ED30
[2] = rats, p.o., compound 3 h before carrageenin, paw volume after 3 h
[3] = mice, i.p. (head), 0.6% acetic acid i.p. 3 h after oral compound (method), writhings over 20 min

Structure (SMILES) | TD50 at 24 h [1] [mg/kg] | ED30 (carrageenin edema; [2]) [mg/kg] | LD50 at 168 h (Acute Toxicity) [mg/kg] | ED30 (acetic acid writhing; [3]) [mg/kg] | TD50 at 24 h ([1]; rats, p.o., 24 h fasted, stomach observed 24 h after dosing, read-out: UD50 (50% ulcer-forming dose)) [mg/kg] | ED30 (carrageenin edema; 3 h) [mg/kg] | ED30 (acetic acid writhing; po) [mg/kg]
CC(=O)CCc1ccc2c(c1)Cc1ccccc1-2 [Example 3, 4-(2-fluorenyl)-butan-2-one] | 182 | 12.5 | > 2000 | 37.2 |  |  | 
CC(O)C=Cc1ccc2c(c1)Cc1ccccc1-2 (stereo not shown) [Example 2, 4-(2-fluorenyl)-3-buten-2-ol] | 90 | 28.3 | 1680 | 1.8 |  |  | 
CC(O)CCc1ccc2c(c1)Cc1ccccc1-2 (stereo not shown) [Example 9, 4-(2-Fluorenyl)-butan-2-ol] | 68.4 | 17.3 | > 2000 | 18.4 |  |  | 
COc1ccc2c(c1)c(CC(=O)O)c(C)n2C(=O)c1ccc(Cl)cc1 [Indomethacin, reference compound] |  |  | 29 |  | 4 | 7.1 | 2.3
